Our source for the GI50 and TGI values is PubChem BioAssay (NCI).

The structures appear in SMILES notation.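 Five concentrations, 48 hours, 96-well plates. Here, GI50 denotes the concentration required for 50% inhibition of growth. TGI: total growth inhibition.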

For the first assay, the system named is SF-295 CNS. The experiment in a line: DTP human tumour cell line panel, 48 h.
Turning to `CC[C@H](Nc1nc(N)nc(C)c1C#N)c1nc2cccc(CN(C)c3ncc(C(=O)NO)cn3)c2c(=O)n1-c1ccccc1`, the GI50 was 1.28 µM and the TGI worked out at 3.81 µM.

`CC1=CC(=O)c2c(O)cccc2C1=O` gave a total growth inhibition concentration (TGI) of 23.9 µM. This counts as double-digit micromolar.

In the case of `COc1cc(Cn2cc3c(c2)-c2oncc2CC3)cc(OC)c1OC`, the GI50 was 0.0185 µM and the concentration for total growth inhibition (TGI) stood at 0.059 µM.

On to `COc1ccc(C(=O)/C=C/c2ccc(Cl)cc2)cc1S(=O)(=O)Nc1c(N)nc(SC)[nH]c1=O`, for which the GI50 was 2.72 µM and the concentration for total growth inhibition (TGI) was determined as 8.91 µM.

With `CN(C)c1ccc2nc3ccc(=[N+](C)C)cc-3oc2c1`, the GI50 is 3.74 µM and the TGI was determined as 22.5 µM.

As to `O=S(=O)(c1ccc(NC(=S)NCc2cccnc2)cc1)N1CCCCC1`, the GI50 is 13 µM and the TGI is above 100 µM.

`O=C(O)CSSCC(=O)O` gave a concentration for total growth inhibition (TGI) above 100 µM.

Take `COc1cccc(C2=C(c3cn(C)c4ccccc34)C(=O)NC2=O)c1`: the GI50 was 11 µM and the concentration for total growth inhibition (TGI) was above 25 µM.

As for `Fc1ccc2[nH]cc(Cc3c[nH]c4ccc(F)cc34)c2c1`, the GI50 is 20.6 µM and the TGI stood at 47.9 µM.

On to `C=C1C(=O)O[C@@H]2C1CC(=O)C(C)CC/C=C(\C)CCC[C@H](C)[C@H]2OC(C)=O` (stereo not given in full), for which the GI50 was 19.8 µM and the TGI stood at 36.2 µM.

Consider `Cc1ccc(C(=O)Nc2ccc(S(=O)(=O)O)c3cc(S(=O)(=O)O)cc(S(=O)(=O)O)c23)cc1NC(=O)c1cccc(N)c1`, for which the TGI is above 100 µM.

Take `N#CC(C#N)=Cc1ccc(-c2ccc(-c3nc4ccccc4s3)cc2)o1`: the GI50 is 20.7 µM and the TGI was determined as 46 µM.

The subject of the next assay is TK-10 renal. The experiment in a line: DTP human tumour cell line panel, 48 h.
`CC[C@H](Nc1nc(N)nc(C)c1C#N)c1nc2cccc(CN(C)c3ncc(C(=O)NO)cn3)c2c(=O)n1-c1ccccc1`: the GI50 was 0.681 µM and the concentration for total growth inhibition (TGI) worked out at 3.85 µM.

Take `CC1=CC(=O)c2c(O)cccc2C1=O`: the TGI came out at 3.14 µM.

As to `COc1cc(Cn2cc3c(c2)-c2oncc2CC3)cc(OC)c1OC`, the GI50 was 5.77 µM and the total growth inhibition concentration (TGI) is above 100 µM.

As to `COc1ccc(C(=O)/C=C/c2ccc(Cl)cc2)cc1S(=O)(=O)Nc1c(N)nc(SC)[nH]c1=O`, the GI50 is 2.98 µM and the TGI was 9.44 µM.

On to `CN(C)c1ccc2nc3ccc(=[N+](C)C)cc-3oc2c1`, for which the GI50 is 17.2 µM and the TGI was 57.2 µM.

Consider `O=S(=O)(c1ccc(NC(=S)NCc2cccnc2)cc1)N1CCCCC1`, for which the GI50 was 47.5 µM and the concentration for total growth inhibition (TGI) is above 100 µM.

In turn, `O=C(O)CSSCC(=O)O` returned a TGI above 100 µM.

Consider `COc1cccc(C2=C(c3cn(C)c4ccccc34)C(=O)NC2=O)c1`, for which the GI50 is 13.3 µM and the total growth inhibition concentration (TGI) was above 25 µM.

Consider `Fc1ccc2[nH]cc(Cc3c[nH]c4ccc(F)cc34)c2c1`, for which the GI50 is 28.9 µM and the TGI was 68.6 µM.

As for `C=C1C(=O)O[C@@H]2C1CC(=O)C(C)CC/C=C(\C)CCC[C@H](C)[C@H]2OC(C)=O` (stereo not given in full), the GI50 is 1.79 µM and the concentration for total growth inhibition (TGI) came out at 8.43 µM.

`Cc1ccc(C(=O)Nc2ccc(S(=O)(=O)O)c3cc(S(=O)(=O)O)cc(S(=O)(=O)O)c23)cc1NC(=O)c1cccc(N)c1`: the TGI was above 100 µM.

As for `N#CC(C#N)=Cc1ccc(-c2ccc(-c3nc4ccccc4s3)cc2)o1`, the GI50 was 17.2 µM and the concentration for total growth inhibition (TGI) came out at 36.9 µM.

The next assay relates to MCF7 breast. As to the kind of experiment: DTP human tumour cell line panel, 48 h.
Regarding `CC[C@H](Nc1nc(N)nc(C)c1C#N)c1nc2cccc(CN(C)c3ncc(C(=O)NO)cn3)c2c(=O)n1-c1ccccc1`, the GI50 was 0.915 µM and the concentration for total growth inhibition (TGI) is above 24.5 µM.

Molecule `CC1=CC(=O)c2c(O)cccc2C1=O` yielded a TGI of 3.9 µM.

Consider `COc1cc(Cn2cc3c(c2)-c2oncc2CC3)cc(OC)c1OC`, for which the concentration for 50% growth inhibition (GI50) was 0.0324 µM and the total growth inhibition concentration (TGI) was above 100 µM.

In the case of `COc1ccc(C(=O)/C=C/c2ccc(Cl)cc2)cc1S(=O)(=O)Nc1c(N)nc(SC)[nH]c1=O`, the GI50 is 1.97 µM and the TGI was found to be 8.25 µM.

`CN(C)c1ccc2nc3ccc(=[N+](C)C)cc-3oc2c1`: the GI50 is 0.368 µM and the TGI is 2.3 µM.

Regarding `O=S(=O)(c1ccc(NC(=S)NCc2cccnc2)cc1)N1CCCCC1`, the GI50 is 12.7 µM and the TGI is above 100 µM.

In turn, `O=C(O)CSSCC(=O)O` showed a TGI above 100 µM.

Turning to `COc1cccc(C2=C(c3cn(C)c4ccccc34)C(=O)NC2=O)c1`, the GI50 was 6.35 µM and the TGI was above 25 µM.

Consider `Fc1ccc2[nH]cc(Cc3c[nH]c4ccc(F)cc34)c2c1`, for which the GI50 was 35.6 µM and the TGI is above 100 µM.

As to `C=C1C(=O)O[C@@H]2C1CC(=O)C(C)CC/C=C(\C)CCC[C@H](C)[C@H]2OC(C)=O` (stereo not given in full), the GI50 was 4.81 µM and the TGI was determined as 35.6 µM.

In turn, `Cc1ccc(C(=O)Nc2ccc(S(=O)(=O)O)c3cc(S(=O)(=O)O)cc(S(=O)(=O)O)c23)cc1NC(=O)c1cccc(N)c1` had a TGI above 100 µM.

Consider `N#CC(C#N)=Cc1ccc(-c2ccc(-c3nc4ccccc4s3)cc2)o1`, for which the GI50 was 6.2 µM and the TGI was above 100 µM.

The next assay deals with NCI-H226 lung. The experiment in a line: DTP human tumour cell line panel, 48 h.
`CC[C@H](Nc1nc(N)nc(C)c1C#N)c1nc2cccc(CN(C)c3ncc(C(=O)NO)cn3)c2c(=O)n1-c1ccccc1`: the GI50 is 1.18 µM and the total growth inhibition concentration (TGI) amounted to 7.07 µM.

For the molecule `CC1=CC(=O)c2c(O)cccc2C1=O`, the TGI stood at 24.6 µM.

Turning to `COc1cc(Cn2cc3c(c2)-c2oncc2CC3)cc(OC)c1OC`, the GI50 was 0.256 µM and the total growth inhibition concentration (TGI) was above 100 µM.

For the molecule `COc1ccc(C(=O)/C=C/c2ccc(Cl)cc2)cc1S(=O)(=O)Nc1c(N)nc(SC)[nH]c1=O`, the GI50 is 2.34 µM and the TGI was determined as 8.36 µM.

For `CN(C)c1ccc2nc3ccc(=[N+](C)C)cc-3oc2c1`, the GI50 was 2.1 µM and the total growth inhibition concentration (TGI) was 6.76 µM.

Turning to `O=S(=O)(c1ccc(NC(=S)NCc2cccnc2)cc1)N1CCCCC1`, the GI50 was 39.5 µM and the TGI is above 100 µM.

`O=C(O)CSSCC(=O)O`: the total growth inhibition concentration (TGI) is above 100 µM.

`COc1cccc(C2=C(c3cn(C)c4ccccc34)C(=O)NC2=O)c1`: the GI50 is 7.96 µM and the total growth inhibition concentration (TGI) was above 25 µM.

For the molecule `Fc1ccc2[nH]cc(Cc3c[nH]c4ccc(F)cc34)c2c1`, the GI50 is 31.3 µM and the TGI was 92.3 µM.

On to `C=C1C(=O)O[C@@H]2C1CC(=O)C(C)CC/C=C(\C)CCC[C@H](C)[C@H]2OC(C)=O` (stereo not given in full), for which the GI50 was 15.1 µM and the TGI was 30.5 µM.

Molecule `Cc1ccc(C(=O)Nc2ccc(S(=O)(=O)O)c3cc(S(=O)(=O)O)cc(S(=O)(=O)O)c23)cc1NC(=O)c1cccc(N)c1` registered a concentration for total growth inhibition (TGI) above 100 µM.

For the molecule `N#CC(C#N)=Cc1ccc(-c2ccc(-c3nc4ccccc4s3)cc2)o1`, the GI50 was 14.2 µM and the TGI is 39.2 µM.

Another assay has as its system K-562 leukemia. The experiment in a line: DTP human tumour cell line panel, 48 h.
Consider `CC[C@H](Nc1nc(N)nc(C)c1C#N)c1nc2cccc(CN(C)c3ncc(C(=O)NO)cn3)c2c(=O)n1-c1ccccc1`, for which the concentration for 50% growth inhibition (GI50) is 0.39 µM and the TGI is above 50 µM.

Consider `CC1=CC(=O)c2c(O)cccc2C1=O`, for which the TGI came out at 2.52 µM.

With `COc1cc(Cn2cc3c(c2)-c2oncc2CC3)cc(OC)c1OC`, the GI50 is below 0.0183 µM and the TGI was above 34.7 µM.

For the molecule `COc1ccc(C(=O)/C=C/c2ccc(Cl)cc2)cc1S(=O)(=O)Nc1c(N)nc(SC)[nH]c1=O`, the GI50 was 2.77 µM and the TGI was above 100 µM.

Regarding `CN(C)c1ccc2nc3ccc(=[N+](C)C)cc-3oc2c1`, the GI50 is 1.58 µM and the concentration for total growth inhibition (TGI) turned out to be 71.9 µM.

In the case of `O=S(=O)(c1ccc(NC(=S)NCc2cccnc2)cc1)N1CCCCC1`, the GI50 is 1.38 µM and the TGI is above 100 µM.

Molecule `O=C(O)CSSCC(=O)O` yielded a total growth inhibition concentration (TGI) above 100 µM.

On to `COc1cccc(C2=C(c3cn(C)c4ccccc34)C(=O)NC2=O)c1`, for which the GI50 was 7.93 µM and the TGI was above 25 µM.

As for `Fc1ccc2[nH]cc(Cc3c[nH]c4ccc(F)cc34)c2c1`, the GI50 is 32.4 µM and the concentration for total growth inhibition (TGI) was above 100 µM.

On to `C=C1C(=O)O[C@@H]2C1CC(=O)C(C)CC/C=C(\C)CCC[C@H](C)[C@H]2OC(C)=O` (stereo not given in full), for which the GI50 was 3.52 µM and the concentration for total growth inhibition (TGI) was found to be 15.3 µM.

Molecule `Cc1ccc(C(=O)Nc2ccc(S(=O)(=O)O)c3cc(S(=O)(=O)O)cc(S(=O)(=O)O)c23)cc1NC(=O)c1cccc(N)c1` had a total growth inhibition concentration (TGI) above 100 µM.

`N#CC(C#N)=Cc1ccc(-c2ccc(-c3nc4ccccc4s3)cc2)o1`: the GI50 was 27.4 µM and the total growth inhibition concentration (TGI) was above 100 µM.
